Measurements: patent publication US11098010B2 (priority 2017, dated 2021)

tested on: HBV rcDNA in HepDE19 cells; test: HepDE19 assay with bDNA quantitation of HBV rcDNA; format: cell-based, hepatitis B virus (HBV); settings: HepDE19 cells, inhibition of rcDNA formation, 7 day incubation, top concentration 25 μM; read-out: DE-19 bDNA EC50

Row | SMILES | EC50 [µM]
1 | CC1(NC(=O)OCc2ccccn2)CCc2c(C(=O)Nc3ccc(F)c(Cl)c3)ccc(F)c21 (centres unmarked) [Compound 224, O-Pyridin-2-ylmethyl, N-(4-((3-chloro-4-fluorophenyl)carbamoyl)-7-fluoro-1-methyl-2,3-dihydro-1H-inden-1-yl) carbamate] | 11
2 | CC1(NC(=O)OCc2ccccn2)CCc2c(C(=O)Nc3ccc(F)c(Cl)c3)ccc(F)c21 (centres unmarked) [Compound 225, O-Pyridin-2-ylmethyl, N-(4-((3-chloro-4-fluorophenyl)carbamoyl)-7-fluoro-1-methyl-2,3-dihydro-1H-inden-1-yl) carbamate] | 2
3 | O=C(N[C@H]1CCc2c(C(=O)Nc3ccc(F)c(Cl)c3)cccc21)OC1CC1 [Compound 229, O-cyclopropyl, N-(S)-(4-((3-chloro-4-fluorophenyl)carbamoyl)-2,3-dihydro-1H-inden-1-yl) carbamate] | 0.36
4 | O=C(N[C@H]1CCc2c(C(=O)Nc3ccc(F)c(Cl)c3)ccc(F)c21)OCc1nnco1 [Compound 231, O-(1,3,4-oxadiazol-2-yl)methyl, N-(S)-(4-((3-chloro-4-fluorophenyl)carbamoyl)-7-fluoro-2,3-dihydro-1H-inden-1-yl) carbamate] | 0.13
5 | COC(=O)NC1c2c(F)ccc(C(=O)Nc3ccc(F)c(F)c3)c2CC1OC (centres unmarked) [Compound 244, O-methyl, N-(4-((3,4-difluorophenyl)carbamoyl)-7-fluoro-2-methoxy-2,3-dihydro-1H-inden-1-yl) carbamate] | 2
6 | O=C(N[C@H]1CCc2c(C(=O)Nc3ccc(F)c(Cl)c3)ccc(F)c21)OCc1ncn(C2CCCCO2)n1 (stereo partly drawn) [Compound 248, O-(1-(tetrahydro-2H-pyran-2-yl)-1H-1,2,4-triazol-3-yl)methyl, N-((S)-4-((3-chloro-4-fluorophenyl)carbamoyl)-7-fluoro-2,3-dihydro-1H-inden-1-yl) carbamate] | 0.15
7 | O=C(Nc1ccc(F)c(Cl)c1)c1ccc(F)c2c1CCC21NC(=O)N(Cc2ccccn2)C1=O (centres unmarked) [Compound 259, N-(3-chloro-4-fluoro-phenyl)-7′-fluoro-2,5-dioxo-1-(2-pyridylmethyl) spiro[imidazolidine-4,1′-indane]-4′-carboxamide] | 2.9

same assay, conditions: Hepatitis B virus, HepDE19, 168 h, HepDE19 cells, inhibition of rcDNA formation, 7 day incubation, top concentration 25 μM; read-out: DE-19 bDNA EC50

Row | SMILES | EC50 [µM]
8 | O=C(N[C@H]1CCc2c(C(=O)Nc3ccc(F)c(Cl)c3)ccc(F)c21)OC1CC1 [Compound 226, O-cyclopropyl, N—(S)-(4-((3-chloro-4-fluorophenyl)carbamoyl)-7-fluoro-2,3-dihydro-1H-inden-1-yl)carbamate] | 0.24
9 | CNS(=O)(=O)N[C@H]1CCc2c(C(=O)Nc3ccc(F)c(Cl)c3)ccc(F)c21 [Compound 227, (S)—N-(3-Chloro-4-fluorophenyl)-7-fluoro-1-((N-methylsulfamoyl)amino)-2,3-dihydro-1H-indene-4-carboxamide] | 0.43
10 | O=C(Nc1ccc(F)c(Cl)c1)c1ccc(F)c2c1CC[C@@H]2NS(=O)(=O)N1CCOCC1 [Compound 228, (S)—N-(3-Chloro-4-fluorophenyl)-7-fluoro-1-(morpholine-4-sulfonamido)-2,3-dihydro-1H-indene-4-carboxamide] | 0.2
11 | CNS(=O)(=O)N[C@H]1CCc2c(C(=O)Nc3ccc(F)c(Cl)c3)cccc21 [Compound 230, (S)-N-(3-chloro-4-fluorophenyl)-1-((N-methylsulfamoyl)amino)-2,3-dihydro-1H-indene-4-carboxamide] | 0.36
12 | CCS(=O)(=O)N[C@H]1CCc2c(C(=O)Nc3ccc(F)c(Cl)c3)ccc(F)c21 [Compound 232, (S)—N-(3-Chloro-4-fluorophenyl)-1-(ethylsulfonamido)-7-fluoro-2,3-dihydro-1H-indene-4-carboxamide] | 0.24
13 | CCCS(=O)(=O)N[C@H]1CCc2c(C(=O)Nc3ccc(F)c(Cl)c3)ccc(F)c21 [Compound 233, (S)—N-(3-Chloro-4-fluorophenyl)-7-fluoro-1-(propylsulfonamido)-2,3-dihydro-1H-indene-4-carboxamide] | 0.33
14 | CC(C)CS(=O)(=O)N[C@H]1CCc2c(C(=O)Nc3ccc(F)c(Cl)c3)ccc(F)c21 [Compound 234, (S)—N-(3-Chloro-4-fluorophenyl)-7-fluoro-1-((2-methylpropyl)sulfonamido)-2,3-dihydro-1H-indene-4-carboxamide] | 0.34
15 | CNC(=O)NC1c2c(F)ccc(C(=O)Nc3ccc(F)c(Cl)c3)c2CC1OC (centres unmarked) [Compound 235, N-(3-chloro-4-fluorophenyl)-7-fluoro-2-methoxy-1-(3-methylureido)-2,3-dihydro-1H-indene-4-carboxamide] | 4.5
16 | COC(=O)NC1c2c(F)ccc(C(=O)Nc3ccc(F)c(Cl)c3)c2CC1OC (centres unmarked) [Compound 236, O-methyl, N-(4-((3-chloro-4-fluorophenyl)carbamoyl)-7-fluoro-2-methoxy-2,3-dihydro-1H-inden-1-yl)carbamate] | 0.34
17 | CC(C)NS(=O)(=O)N[C@H]1CCc2c(C(=O)Nc3ccc(F)c(Cl)c3)ccc(F)c21 [Compound 237, (S)-N-(3-chloro-4-fluorophenyl)-7-fluoro-1-((N-isopropylsulfamoyl)amino)-2,3-dihydro-1H-indene-4-carboxamide] | 0.58
18 | CC(C)S(=O)(=O)N[C@H]1CCc2c(C(=O)Nc3ccc(F)c(Cl)c3)ccc(F)c21 [Compound 238, (S)—N-(3-Chloro-4-fluorophenyl)-7-fluoro-1-((1-methylethyl)sulfonamido)-2,3-dihydro-1H-indene-4-carboxamide] | 0.19
19 | O=C(Nc1ccc(F)c(Cl)c1)c1ccc(F)c2c1CC[C@@H]2NS(=O)(=O)C1CCCC1 [Compound 239, (S)—N-(3-Chloro-4-fluorophenyl)-1-(cyclopentanesulfonamido)-7-fluoro-2,3-dihydro-1H-indene-4-carboxamide] | 0.24
20 | O=C(Nc1ccc(F)c(Cl)c1)c1ccc(F)c2c1CC[C@@H]2NS(=O)(=O)C1CCCCC1 [Compound 240, (S)—N-(3-Chloro-4-fluorophenyl)-1-(cyclohexanesulfonamido)-7-fluoro-2,3-dihydro-1H-indene-4-carboxamide] | 0.51
21 | CNC(=O)NC1CC(C)(C)c2c(C(=O)Nc3ccc(F)c(Cl)c3)ccc(F)c21 (centres unmarked) [Compound 241, N-(3-chloro-4-fluorophenyl)-7-fluoro-3,3-dimethyl-1-(3-methylureido)-2,3-dihydro-1H-indene-4-carboxamide] | 24
22 | O=C(Nc1ccc(F)c(Cl)c1)c1cccc2c1CC[C@@H]2NS(=O)(=O)NC1CC1 [Compound 242, (S)-N-(3-chloro-4-fluorophenyl)-1-((N-cyclopropylsulfamoyl)amino)-2,3-dihydro-1H-indene-4-carboxamide] | 0.57
23 | O=C(Nc1ccc(F)c(Cl)c1)c1ccc(F)c2c1CC[C@@H]2NS(=O)(=O)NC1CC1 [Compound 243, (S)-N-(3-chloro-4-fluorophenyl)-1-((N-cyclopropylsulfamoyl)amino)-7-fluoro-2,3-dihydro-1H-indene-4-carboxamide] | 0.16
24 | CNC(=O)NC1c2c(F)ccc(C(=O)Nc3ccc(F)c(F)c3)c2CC1OC (centres unmarked) [Compound 245, N-(3,4-difluorophenyl)-7-fluoro-2-methoxy-1-(3-methylureido)-2,3-dihydro-1H-indene-4-carboxamide] | 4.9
25 | COC1Cc2c(C(=O)Nc3ccc(F)c(F)c3)ccc(F)c2C1NC(=O)OCc1ccccn1 (centres unmarked) [Compound 246, O-pyridin-2-ylmethyl, N-(4-((3,4-difluorophenyl)carbamoyl)-7-fluoro-2-methoxy-2,3-dihydro-1H-inden-1-yl)carbamate] | 2.7
26 | COC1Cc2c(C(=O)Nc3ccc(F)c(Cl)c3)ccc(F)c2C1NC(=O)OCc1ccccn1 (centres unmarked) [Compound 247, O-pyridin-2-ylmethyl, N-(4-((3-chloro-4-fluorophenyl)carbamoyl)-7-fluoro-2-methoxy-2,3-dihydro-1H-inden-1-yl)carbamate] | 0.68
27 | O=C(Nc1ccc(F)c(Cl)c1)c1ccc(F)c2c1CCC2=O [Compound 251, N-(3-Chloro-4-fluorophenyl)-7-fluoro-1-oxo-2,3-dihydro-1H-indene-4-carboxamide] | 0.55
28 | [2H]C([2H])(OC(=O)N[C@H]1CCc2c(C(=O)Nc3ccc(F)c(Cl)c3)ccc(F)c21)c1ncn(C([2H])([2H])[2H])n1 [Compound 252, O-((1-(Methyl-d3)-1H-1,2,4-triazol-3-yl)methyl-d2, N—(S)-(4-((3-chloro-4-fluorophenyl)carbamoyl)-7-fluoro-2,3-dihydro-1H-inden-1-yl) carbamate] | 0.13
29 | N#CCCOC(=O)N[C@H]1CCc2c(C(=O)Nc3ccc(F)c(Cl)c3)ccc(F)c21 [Compound 255, O—(S)-2-Cyanoethyl, N-4-(3-chloro-4-fluorophenylcarbamoyl)-7-fluoro-2,3-dihydro-1H-inden-1-yl carbamate] | 0.08
30 | N#CCCCOC(=O)N[C@H]1CCc2c(C(=O)Nc3ccc(F)c(Cl)c3)ccc(F)c21 [Compound 256, O—(S)-3-Cyanopropyl, N-4-(3-chloro-4-fluorophenylcarbamoyl)-7-fluoro-2,3-dihydro-1H-inden-1-yl carbamate] | 0.24

same assay, conditions: Hepatitis B virus, HepDE19, 168 h, read-out: DE-19 bDNA EC50 (μM), HepDE19 cells, inhibition of rcDNA formation, 7 day incubation, top concentration 25 μM

Row | SMILES | EC50 [µM]
31 | O=C(N[C@H]1CCc2c(C(=O)Nc3ccc(F)c(Cl)c3)ccc(F)c21)OCc1ncn(COP(=O)(O)O)n1 [Compound 253, O-(1-((Phosphonoxy)methyl)-1H-1,2,4-triazol-3-yl)methyl, N—(S)-(4-((3-chloro-4-fluorophenyl)carbamoyl)-7-fluoro-2,3-dihydro-1H-inden-1-yl) carbamate] | 0.12
32 | O=C(N[C@H]1CCc2c(C(=O)Nc3ccc(F)c(Cl)c3)ccc(F)c21)OCc1ccn(COP(=O)(O)O)n1 [Compound 254, Sodium (S)-(3-((((4-((3-chloro-4-fluorophenyl)carbamoyl)-7-fluoro-2,3-dihydro-1H-inden-1-yl)carbamoyl)oxy)methyl)-1H-pyrazol-1-yl)methyl phosphate] | 0.57
